Values of other authors in patent US11458150B2 (priority 2019, dated 2022).

System: pellagra patients
Conditions: in vivo

In the case of O=C(O)c1cccnc1 [nicotinic acid], the “effect on symptoms of pellagra” value is listed as “disappearance of many symptoms of the disease” and the “time to blanching of acute erythematous dermal lesions with intact epithelium” value is listed as ≤ 48 h.
